Assay results as given in PMC10572602, “Molecular Mechanism of STIL Coiled-Coil Domain Oligomerization” (International Journal of Molecular Sciences, 2023).

Test system: STIL CCD peptide
Experiment: AUC sedimentation velocity (SV), oligomeric state
Format: physicochemical
Conditions: for sw / mw (solution mass from c(s) fit) / f/f0 / sw(20,w) / oligomeric state (average number of monomers in the oligomer): AUC-SV, 60 krpm; for sw / mw (solution mass from c(s) fit) / oligomeric state (average number of monomers in the oligomer): 20 °C; for sw / mw (solution mass from c(s) fit) / f/f0 / sw(20,w): pH 6.8; for mw (solution mass from c(s) fit) / oligomeric state (average number of monomers in the oligomer): 95% confidence level; for oligomeric state (average number of monomers in the oligomer): continuous c(s), 25 mM sodium phosphate pH 6.8, NaCl
Experimental: Previously, we and others have shown by size-exclusion chromatography and multi-angle light scattering that the oligomerization of a STIL CCD peptide is concentration dependent. However, these studies were qualitative and the interaction was not quantified. To quantify the oligomerisation of the STIL CCD peptide, analytical ultracentrifugation (AUC) sedimentation velocity (SV) and sedimentation equilibrium (SE) experiments were performed (Figure 2A, Table 1 and Figures S4–S9, S18 and S19). AUC-SV experiments were conducted at several concentrations to explore how the oligomeric state changed with concentration in the low-to-high µM concentration range, and also to estimate the dissociation constants of the oligomerization of the STIL CCD peptide.
Analytical ultracentrifugation (AUC) experiments were carried out using a Beckman Optima XL-A or XL-I analytical ultracentrifuge. Measurements were performed at 20 °C unless otherwise stated, using an An-50 or An-60 rotor, in Sodium Phosphate Buffer pH 6.8 (25 mM Na2PO4 with addition of 137 mM NaCl, pH measured using Jenway (TM) 3510 benchtop and adjusted using 1M HCl and 1M NaOH solutions). The partial specific volume ( υ¯ ) for each peptide were calculated in Sedfit using values from Cohn and Edsall. The buffer densities and viscosities were calculated using UltraScan III [54].
Sedimentation velocity (SV) experiments were performed in EPON 2-channel centerpieces with quartz windows or aluminium centrepieces with sapphire windows. The samples were centrifuged at 50 or 60 krpm where stated, with absorbance measurements taken from a radial range of 5.7–7.3 cm. 120 scans were taken at 5 min intervals, the data were fit in Sedfit to a continuous c(s) distribution model at a 95% confidence level. The frictional ration and baseline were floated, and Time-invariant and Radial-invariant noise were fit. Initially data were fit between a range of Svedberg ratio of 0–15, but this was reduced to 0–3 for all data as there were no larger species. The residuals for each individual fit are shown in Figures S14–S17 as a bitmap in which the color indicates the difference between the model fit and the raw data over the radial range to which the data were fitted. The scans are in vertical chronological order.

Oligomeric State (at 10 µM) (10 µM): Monomer | sw (10 µM): 0.590 S | mw (solution mass from c(s) fit) (10 µM): 3849 Da | f/f0 (10 µM): 1.460 | sw(20,w) (10 µM): 0.608 S | oligomeric state (average number of monomers in the oligomer) (10 µM, absorbance): 1.00 × monomer mass | oligomeric state (average number of monomers in the oligomer) (10 µM, absorbance, listed as CCD718–749-L736E): 1 × monomer mass | oligomeric state (average number of monomers in the oligomer) (10 µM, absorbance, listed as STIL-L736E): 1.0 × monomer mass | sw (500 µM): 0.721 S | mw (solution mass from c(s) fit) (500 µM): 3871 Da | f/f0 (500 µM): 1.201 | sw(20,w) (500 µM): 0.742 S | oligomeric state (average number of monomers in the oligomer) (500 µM): 1 × monomer mass | oligomeric state (average number of monomers in the oligomer) (500 µM, listed as STIL-L736E): 1.0 × monomer mass
Substance: L SPDAYRF LTEQDRQ LRLEQAQ IQRLLEA QSL-NH2 [STIL CCD718–749 L736E, STIL CCD peptide with destabilising L736E mutation; PDB 8oyk]
